{
  "source": "patent US20080031903A1",
  "about": "“METHOD OF TREATING OCULAR INFECTIONS” (priority 2006, published 2008)",
  "system": "Ad5 McEwen",
  "assay": "Ad5/NZW rabbit ocular model, Example 3 (Ad-R1)",
  "assay_type": "in vivo",
  "protocol": "The purpose of this study is to determine the antiviral efficacy of a 100 mg/ml solution of human Intra Venous Immune Globulin (IG) in the Ad5/NZW rabbit ocular model.\nFifteen NZW female rabbits 2-3 lbs were received from Myrtle's Rabbitry, Thompson Station, Tenn. Fifteen rabbits were inoculated in both eyes following general anesthesia with ketamine & xylazine, topical anesthesia with proparacaine, and corneal scarification (12 cross-hatched strokes of a #25 needle) with 50 μl of 3.0×10^7 pfu/ml (1.5×10^6 pfu/eye or 1.5×10^8 vp/eye) of Ad5 McEwen (Stock P3, Feb. 25, 05, 5.3×10^8 pfu/ml). Eyes were closed and gently rubbed for 5 seconds to ensure contact of the virus on all ocular surfaces.\nEyes were cultured for virus after at least 3 hours (Day 0) after infection. Following topical anesthesia with proparacaine, a single cotton-tipped swab was placed into the lower fornix of each eye, rolled over the cornea into the upper fornix to recover adenovirus from the tear film and corneal and conjunctival surfaces. The swabs from each eye were placed individually into tubes containing 1 ml of outgrowth media and were frozen at −70° C. pending plaque assay. On Day 1, rabbits were divided into 3 treatment groups of 5 rabbits each. Two masked solutions were received. One solution contained 100 mg/ml of IG (Gammagard S/D) and one solution contained pharmaceutical grade saline for use as the negative control. The positive antiviral control, 0.5% cidofovir was not masked because of the differences in treatment regimen. The solutions were stored at 4° C. until and during use.\nDrops were administered with at least a 1 hour interval between drops. All eyes from all groups were cultured for virus on days 1, 3, 4, 5, 7, 9, 11, and 14 at least one hour after the final doses of the treatments described above. At various times during the course of the experiment, Ad5 titers were determined on A549 cell monolayers using a standard plaque assay. The ocular cultures to be titered were thawed, diluted (1:10) and inoculated onto A549 monolayers. The virus was adsorbed for 3 hours. Following adsorption, 1 ml of media plus 0.5% methylcellulose was added to each well, and the plates were incubated at 37° C. in a 5% CO2-water vapor atmosphere. After 7 days incubation, the cells were stained with 0.5% gentian violet, and the number of plaques were counted under a dissecting microscope (25×). The viral titers were then calculated, and expressed as plaque-forming units per milliliter (pfu/ml).\nAnalysis of Results: Data were analyzed statistically using True Epistat and/or Minitab statistical software. Outcome measures included: Ad5-Positive Cultures per Total (Overall [Days 1-14]; Early Phase of Infection [Days 1-5]; Late Phase of Infection [Days 7-14]), Daily Viral Titers, Mean Viral Titer (Early Phase of Infection [Days 1-5]; Late Phase of Infection [Days 7-14]), and Duration of Shedding. Significance was established at the p≦0.05 confidence level.\nDuration of viral shedding is shown in Table 8 and was statistically analyzed. The duration of viral shedding in IG treated animals was 5.4 days (standard deviation of 0.84 days). In the Cidofovir treated animals, the duration of viral shedding was 5.0 (SD=1.25 days) while it was longer in the normal saline treated group: 7.2 days (SD=1.14 days). The significant finding is represented graphically in FIG. 8. In this analysis, IG was similar to Cidofovir in reducing the duration of viral shedding.",
  "key": {"[1]": {"conditions": "Days 1-5, Early Phase of Infection"}, "[2]": {"conditions": "Days 7-14, Late Phase of Infection"}},
  "note": "“And” between values parts separate entries of the source, which are not always exact repeats. Identical values can stand only once.",
  "data": [
    {"smiles": "Nc1ccn(C[C@@H](CO)OCP(=O)(O)O)c(=O)n1", "note": "[0.5% Cidofovir, Cidofovir]", "values": [
      {"measurement": "Daily Ad5 ocular titer, Median", "setting": "D0", "value": 2350, "unit": "pfu/ml"},
      {"measurement": "Daily Ad5 ocular titer, TrMean", "setting": "D0", "value": 2988, "unit": "pfu/ml"},
      {"measurement": "Daily Ad5 ocular titer, Mean", "setting": "D0, N 10 eyes", "value": 3214, "unit": "pfu/ml"},
      {"measurement": "Ad5 ocular viral titer, individual eye", "setting": "D 0, after infection, before treatment", "value": "2450 pfu/ml and 1950 pfu/ml and 4250 pfu/ml and 1100 pfu/ml and 2250 pfu/ml and 6650 pfu/ml and 7200 pfu/ml and 3100 pfu/ml and 2150 pfu/ml and 1040 pfu/ml"},
      {"measurement": "Ad5 ocular viral titer, individual eye", "setting": "D 1", "value": "450 pfu/ml (2×) and 475 pfu/ml and 1000 pfu/ml and 5 pfu/ml and 550 pfu/ml (2×) and 1550 pfu/ml and 1800 pfu/ml and 330 pfu/ml"},
      {"measurement": "Daily Ad5 ocular titer, Mean", "setting": "D 1", "value": 716, "unit": "pfu/ml"},
      {"measurement": "Daily Ad5 ocular titer, Median", "setting": "D 1", "value": 512, "unit": "pfu/ml"},
      {"measurement": "Daily Ad5 ocular titer, TrMean", "setting": "D 1", "value": 669, "unit": "pfu/ml"},
      {"measurement": "Ad5 ocular viral titer, individual eye", "setting": "D 3", "value": "4250 pfu/ml and 3800 pfu/ml and 2700 pfu/ml and 130 pfu/ml and 9350 pfu/ml and 8200 pfu/ml and 9300 pfu/ml and 100 pfu/ml and 350 pfu/ml and 210 pfu/ml"},
      {"measurement": "Daily Ad5 ocular titer, Mean", "setting": "D 3", "value": 3839, "unit": "pfu/ml"},
      {"measurement": "Daily Ad5 ocular titer, Median", "setting": "D 3", "value": 3250, "unit": "pfu/ml"},
      {"measurement": "Daily Ad5 ocular titer, TrMean", "setting": "D 3", "value": 3617, "unit": "pfu/ml"},
      {"measurement": "Ad5 ocular viral titer, individual eye", "setting": "D 4", "value": "650 pfu/ml and 400 pfu/ml and 6700 pfu/ml and 1150 pfu/ml and 4700 pfu/ml and 2350 pfu/ml and 1800 pfu/ml and 25 pfu/ml and 0 pfu/ml and 80 pfu/ml"},
      {"measurement": "Daily Ad5 ocular titer, Mean", "setting": "D 4", "value": 1785, "unit": "pfu/ml"},
      {"measurement": "Daily Ad5 ocular titer, Median", "setting": "D 4", "value": 900, "unit": "pfu/ml"},
      {"measurement": "Daily Ad5 ocular titer, TrMean", "setting": "D 4", "value": 1394, "unit": "pfu/ml"},
      {"measurement": "Ad5 ocular viral titer, individual eye", "setting": "D 5", "value": "550 pfu/ml and 10 pfu/ml and 1550 pfu/ml and 0 pfu/ml (3×) and 400 pfu/ml and 1400 pfu/ml and 1100 pfu/ml and 5 pfu/ml"},
      {"measurement": "Daily Ad5 ocular titer, Mean", "setting": "D 5", "value": 501, "unit": "pfu/ml"},
      {"measurement": "Daily Ad5 ocular titer, Median", "setting": "D 5", "value": 205, "unit": "pfu/ml"},
      {"measurement": "Daily Ad5 ocular titer, TrMean", "setting": "D 5", "value": 433, "unit": "pfu/ml"},
      {"measurement": "Ad5 ocular viral titer, individual eye", "setting": "D 7", "value": "0 pfu/ml (8×) and 5 pfu/ml and 15 pfu/ml"},
      {"measurement": "Daily Ad5 ocular titer, Mean", "setting": "D 7", "value": 2.00, "unit": "pfu/ml"},
      {"measurement": "Daily Ad5 ocular titer, Median", "setting": "D 7", "value": 0.00, "unit": "pfu/ml"},
      {"measurement": "Daily Ad5 ocular titer, TrMean", "setting": "D 7", "value": 0.62, "unit": "pfu/ml"},
      {"measurement": "Ad5 ocular viral titer, individual eye", "setting": "D 9", "value": 0, "unit": "pfu/ml"},
      {"measurement": "Daily Ad5 ocular titer, Mean", "setting": "D 9", "value": 0.00000, "unit": "pfu/ml"},
      {"measurement": "Daily Ad5 ocular titer, Median", "setting": "D 9", "value": 0.00000, "unit": "pfu/ml"},
      {"measurement": "Daily Ad5 ocular titer, TrMean", "setting": "D 9", "value": 0.00000, "unit": "pfu/ml"},
      {"measurement": "Ad5 ocular viral titer, individual eye", "setting": "D 11", "value": 0, "unit": "pfu/ml"},
      {"measurement": "Daily Ad5 ocular titer, Mean", "setting": "D 11", "value": 0.00000, "unit": "pfu/ml"},
      {"measurement": "Daily Ad5 ocular titer, Median", "setting": "D 11", "value": 0.00000, "unit": "pfu/ml"},
      {"measurement": "Daily Ad5 ocular titer, TrMean", "setting": "D 11", "value": 0.00000, "unit": "pfu/ml"},
      {"measurement": "Ad5 ocular viral titer, individual eye", "setting": "D 14", "value": 0, "unit": "pfu/ml"},
      {"measurement": "Daily Ad5 ocular titer, Mean", "setting": "D 14", "value": 0.00000, "unit": "pfu/ml"},
      {"measurement": "Daily Ad5 ocular titer, Median", "setting": "D 14", "value": 0.00000, "unit": "pfu/ml"},
      {"measurement": "Daily Ad5 ocular titer, TrMean", "setting": "D 14", "value": 0.00000, "unit": "pfu/ml"},
      {"measurement": "Positive Cultures per Total", "setting": "Day 0, before treatment", "value": "10/10"},
      {"measurement": "Positive Cultures per Total, percent", "setting": "Day 0, before treatment", "value": 100, "unit": "%"},
      {"measurement": "Positive Cultures per Total", "setting": "Day 1", "value": "10/10"},
      {"measurement": "Positive Cultures per Total, percent", "setting": "Day 1", "value": 100, "unit": "%"},
      {"measurement": "Positive Cultures per Total", "setting": "Day 3", "value": "10/10"},
      {"measurement": "Positive Cultures per Total, percent", "setting": "Day 3", "value": 100, "unit": "%"},
      {"measurement": "Positive Cultures per Total", "setting": "Day 4", "value": "9/10"},
      {"measurement": "Positive Cultures per Total, percent", "setting": "Day 4", "value": 90, "unit": "%"},
      {"measurement": "Positive Cultures per Total", "setting": "Day 5", "value": "7/10"},
      {"measurement": "Positive Cultures per Total, percent", "setting": "Day 5", "value": 70, "unit": "%"},
      {"measurement": "Positive Cultures per Total", "setting": "Day 7", "value": "2/10"},
      {"measurement": "Positive Cultures per Total, percent", "setting": "Day 7", "value": 20, "unit": "%"},
      {"measurement": "Positive Cultures per Total", "setting": "Day 9", "value": "0/10"},
      {"measurement": "Positive Cultures per Total, percent", "setting": "Day 9", "value": 0, "unit": "%"},
      {"measurement": "Positive Cultures per Total", "setting": "Day 11", "value": "0/10"},
      {"measurement": "Positive Cultures per Total, percent", "setting": "Day 11", "value": 0, "unit": "%"},
      {"measurement": "Positive Cultures per Total", "setting": "Day 14", "value": "0/10"},
      {"measurement": "Positive Cultures per Total, percent", "setting": "Day 14", "value": 0, "unit": "%"},
      {"measurement": "Positive Cultures per Total, Total", "setting": "[1]", "value": "36/40"},
      {"measurement": "Positive Cultures per Total, Total (%)", "setting": "[1]", "value": 90, "unit": "%"},
      {"measurement": "Positive Cultures per Total, Total", "setting": "Days 1-14", "value": "38/80"},
      {"measurement": "Positive Cultures per Total, Total (%)", "setting": "Days 1-14", "value": 47.5, "unit": "%"},
      {"measurement": "Positive Cultures per Total, Total (%)", "setting": "Days 1-14, listed as Cidofovir", "value": 47.5, "unit": "%"},
      {"measurement": "Positive Cultures per Total, Total", "setting": "[2]", "value": "2/40"},
      {"measurement": "Positive Cultures per Total, Total (%)", "setting": "[2]", "value": 5, "unit": "%"},
      {"measurement": "Positive Cultures per Total, Total (%)", "setting": "Days 7-14, Late Phase of Infection, listed as Cidofovir", "value": 5, "unit": "%"},
      {"measurement": "Mean Combined Ocular Titers Days 7-14, comparison", "setting": "Late Phase", "value": "significantly lower Mean Combined Ocular Titers Days 7-14 compared with NPR"},
      {"measurement": "Positive Cultures per Total Days 7-14, comparison", "setting": "Late Phase", "value": "significantly fewer Positive Cultures per Total Days 7-14 compared with NPR"},
      {"measurement": "Antiviral efficacy, conclusion", "setting": "compared to Saline control", "value": "demonstrated its proven antiviral efficacy"},
      {"measurement": "Mean Daily Ocular Titers, statistical comparison", "setting": "days as stated", "value": "significantly lower titers on Days 1 and 7 compared with NPR"},
      {"measurement": "Duration of Shedding, individual eye", "setting": "final day with positive Ad5 culture, listed as CDV", "value": "5 days (5×) and 4 days (2×) and 7 days (2×) and 3 days"},
      {"measurement": "Duration of viral shedding, group mean", "setting": "mean of 10 eyes", "value": 5.0, "unit": "days"},
      {"measurement": "Mean Duration of Shedding, comparison", "setting": "rabbit, in vivo", "value": "significantly shorter durations of shedding compared with the NPR"}
    ]}
  ]
}
